# Measured values published in patent US12643858B2 (Inipharm, Inc., priority 2020, dated 2026).
# Target: T1, HSD17B13 enzyme (Homo sapiens, UniProt Q7Z5P4)
# T1 construct: His; made in house; host or cells: E. coli
# T1 sequence (Q7Z5P4 20-300): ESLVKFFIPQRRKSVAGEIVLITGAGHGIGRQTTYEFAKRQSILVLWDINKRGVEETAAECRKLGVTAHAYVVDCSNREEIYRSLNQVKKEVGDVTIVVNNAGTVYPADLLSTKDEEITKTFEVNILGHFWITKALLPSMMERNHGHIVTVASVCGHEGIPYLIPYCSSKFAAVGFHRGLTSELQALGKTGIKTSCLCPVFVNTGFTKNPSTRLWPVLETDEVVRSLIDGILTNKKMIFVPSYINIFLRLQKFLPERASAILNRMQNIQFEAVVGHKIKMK
# Assay: NADH detection assay (fluorescence based LTB3 assay) for HSD17B13 activity
# Format: biochemical
# Settings: substrate 25 μM LTB3, 3 mM NAD+, 125 nM HSD17B13 enzyme, 1 hour at 26.5° C.
# Description: Example A: NADH Detection Assay for Evaluation of HSD17ß13 Activity and Identification of Inhibitors
# The fluorescence based Leukotriene B3 (LTB3) assay monitors the fluorescence of NADH, which is generated from NAD+ during the dehydrogenation of the substrate LTB3. The reactions were performed in a 384-well plates (Greiner; #655076) in a 20 μl reaction volume containing the following reagents (final concentrations): 25 μM LTB3 (Cayman; #20109); 3 mM NAD+ (Sigma; #N0623); 125 nM HSD17B13 enzyme (in-house; E. coli expressed His-tagged, purified, soluble protein); […] potassium phosphate buffer, pH 7.4; and 1% DMSO. Reactions were initiated by co-addition of NAD+ and enzyme, and monitored for 1 hour at 26.5° C. Generation of NADH was measured as the fluorescence signal (Excitation at 340 nm and Emission at 445 nm) at 1 hour minus the baseline fluorescence at t=0. Fluorescence signals in the absence of LTB3 (negative control values), were subtracted from all values so that the results reflected substrate-dependent production of NADH. NADH standards were included to allow the conversion of relative fluorescence units into rates of enzyme activity. Enzyme activity in the presence of test compounds was expressed as a percentage of the uninhibited enzyme activity, and plotted versus inhibitor concentration. Non-linear regression was performed using a four-parameter logistic model and GraphPad Prism software (GraphPad Software, La Jolla, CA). Ten concentrations of inhibitor were tested (in the range of 30 μM-2.5 nM), and two independent assessments were performed at each concentration.
row,SMILES,IC50
1,"CS(=O)(=O)c1ccc(-c2cccc(Oc3ccc(F)c(O)c3)n2)cc1 [Example 77, 2-fluoro-5-((6-(4-(methylsulfonyl)phenyl)pyridin-2-yl)oxy)phenol]",10 to 30 µM
2,"COc1cccc(-c2cccc(Oc3ccc4cn[nH]c4c3)n2)c1F [Example 105, 6-{[6-(2-fluoro-3-methoxyphenyl)pyridin-2-yl]oxy}-1H-indazole]",> 30 µM
3,"CN1CCN(S(=O)(=O)c2cccc(-c3cccc(Oc4ccc(F)c(O)c4)n3)c2)CC1 [Example 43, 2-fluoro-5-((6-(3-((4-methylpiperazin-1-yl)sulfonyl)phenyl)pyridin-2-yl)oxy)phenol]",5 to 10 µM
4,"O=c1ccc(Oc2cccc(-c3cccc(O)c3F)n2)cn1C(F)F [Example 5, 1-(difluoromethyl)-5-((6-(2-fluoro-3-hydroxyphenyl)pyridin-2-yl)oxy)pyridin-2(1H)-one]",> 30 µM
5,"O=S(=O)(Nc1cccc(Oc2cccc(-c3cccc(O)c3F)n2)c1)C1CC1 [Example 93, N-(3-{[6-(2-fluoro-3-hydroxyphenyl)pyridin-2-yl]oxy}phenyl)cyclopropane-sulfonamide]",> 30 µM
6,"Oc1cc(Oc2cccc(-c3ccc4scnc4c3)n2)ccc1F [Example 50, 5-{[6-(1,3-benzothiazol-5-yl)pyridin-2-yl]oxy}-2-fluorophenol]",≤ 5 µM
7,"Oc1cc(Oc2cccc(-c3ccc(O)c(OCc4ccccc4)c3)n2)ccc1F [Example 28, 2-(benzyloxy)-4-[6-(4-fluoro-3-hydroxyphenoxy)pyridin-2-yl] phenol]",≤ 5 µM
8,"CS(=O)(=O)c1cccc(-c2cccc(Oc3ccc(F)c(O)c3)n2)c1 [Example 75, 2-fluoro-5-((6-(3-(methylsulfonyl)phenyl)pyridin-2-yl)oxy)phenol]",> 30 µM
9,"O=S(=O)(c1cccc(-c2cccc(Oc3ccc(F)c(O)c3)n2)c1)N1CCOCC1 [Example 44, 2-fluoro-5-((6-(3-(morpholinosulfonyl)phenyl)pyridin-2-yl)oxy)phenol]",≤ 5 µM
10,"Oc1cc(Oc2cccc(N3CCOCC3)n2)ccc1F [Example 72, 2-fluoro-5-{[6-(morpholin-4-yl)pyridin-2-yl]oxy}phenol]",> 30 µM
11,"O=S(=O)(Nc1cccc(-c2cccc(Oc3ccc(F)c(O)c3)n2)c1)c1ccccc1 [Example 18, N-(3-(6-(4-fluoro-3-hydroxyphenoxy)pyridin-2-yl)phenyl) benzenesulfonamide]",≤ 5 µM
12,"N#Cc1cccc(-c2cccc(Oc3ccc(F)c(O)c3)n2)c1 [Example 104, 3-(6-(4-fluoro-3-hydroxyphenoxy)pyridin-2-yl)benzonitrile]",10 to 30 µM
13,"Oc1cc(Oc2nccc(-c3cccc(O)c3F)n2)ccc1F [Example 11, 2-fluoro-3-[2-(4-fluoro-3-hydroxyphenoxy)pyrimidin-4-yl]phenol]",10 to 30 µM
14,"CS(=O)(=O)NCc1cccc(Oc2cccc(-c3cccc(O)c3F)n2)c1 [Example 94, N-[(3-{[6-(2-fluoro-3-hydroxyphenyl)pyridin-2-yl]oxy}phenyl)methyl]methane-sulfonamide]",> 30 µM
15,"Oc1cc(Oc2cccc(-c3ccc(OCc4ccccc4)cc3)n2)ccc1F [Example 12, 5-((6-(4-(benzyloxy)phenyl)pyridin-2-yl)oxy)-2-fluorophenol]",≤ 5 µM
16,"O=C(NC1CC1)c1cccc(-c2cccc(Oc3ccc(F)c(O)c3)n2)c1 [Example 63, N-cyclopropyl-3-(6-(4-fluoro-3-hydroxyphenoxy)pyridin-2-yl)benzamide]",10 to 30 µM
17,"NS(=O)(=O)c1ccc(-c2cccc(Oc3ccc(F)c(O)c3)n2)cc1 [Example 76, 4-(6-(4-fluoro-3-hydroxyphenoxy)pyridin-2-yl)benzene sulfonamide]",10 to 30 µM
18,"Oc1cc(Oc2cccc(-c3cccc(F)c3O)n2)ccc1F [Example 38, 2-fluoro-5-((6-(3-fluoro-2-hydroxyphenyl)pyridin-2-yl)oxy)phenol]",> 30 µM
19,"Oc1cc(Oc2cccc(-c3cccc(C(F)(F)F)c3)n2)ccc1F [Example 103, 2-fluoro-5-((6-(3-(trifluoromethyl)phenyl)pyridin-2-yl)oxy)phenol]",5 to 10 µM
